Test results published in PubChem BioAssay AID1918945 (Molecular Pharmacology Branch, DTP, NCI, 2023).

Tested on: 883617-216-R-J1-PDC complex spheroid viability
Test: Anticancer human tumor 883617-216-R-J1-PDC patient-derived bladder carcinoma cell line growth inhibition
Conditions: for IC50: curve of first compound; for viability, T/C: stronger effect = lower value
Excerpt: Multicellular complex tumor spheroid response to LSD1 Inhibitor Iadademstat in combination with a variety of drugs and investigational agents in selected tumor cell lines
The current study was undertaken to assess response to LSD1 inhibitors in combination with standard-of-care drugs and investigational agents in solid tumor complex spheroid models as well as in the K-562 leukemia. Complex spheroids include a stromal component modeled by human endothelial cells (HUVEC) and fibroblasts modeled by human mesenchymal stem cells (MSCs). The concentration ranges selected for each drug and investigational agent were based upon clinically achievable concentrations if the clinical Cmax of the agent was known.
Compounds. The drugs and investigational agents used in this study are listed on Table 1. All of the agents used, including staurosporine (NSC755774) and gemcitabine (NSC613327), were obtained from the Developmental Therapeutics Program, NCI. FDA-approved anticancer drugs are available from the NCI at http://dtp.nci.nih.gov/branches/dscb/oncology_drugset_explanation.html. Drugs and investigational agents were >95% pure by proton nuclear magnetic resonance (NMR) and liquid chromatography/mass spectrometry (LC/MS). Stock solutions were prepared at 400x in DMSO, stored at -70 degrees C, and diluted in fresh medium prior to their use. The final concentration of DMSO in cell culture wells never exceeded 0.25% (v/v). The FDA-approved anticancer drug set is available from the Developmental Therapeutics Program at https://dtp.cancer.gov/organization/dscb/obtaining/available_plates.htm. All drugs and investigational agents were tested over a range starting from a high concentration at or near the clinical Cmax and decreasing in half-log increments. If the clinical Cmax for an agent had not been determined, the highest concentration tested was 10 microM.
Cell Lines. The patient-derived cancer cell (PDC) lines: 292921-168-R-J2-PDC, K24384-001-R-PDC, and 521955-158-R2-J5-PDC pancreatic carcinomas, 556581-035-R-J1 ovarian carcinoma, 324938-238-R-J1-PDC, 855422-203-R-J1-PDC and 883617-216-R-J1-PDC urothelial bladder carcinomas, 743489-274-T-PDC renal cell carcinoma, 138582-R-J1 Merkel cell tumor, K60290-347-R-J1 and K57222-313-R-J1-PDC glioblastomas, 653999-131-R-J2-PDC, LG0703-F948-PDC, and 349418-098-R-PDC non-small cell lung carcinomas, 885512-296-R-J2-PDC, 171881-019-R-J1-PDC breast carcinomas and 186277-243-T-J2-PDC and 233499-124-R-J2-PDC colon carcinomas were obtained from the NCI Patient-Derived Models Repository (PDMR, https://pdmr.cancer.gov). The established cell lines NCI/ADR-RES (RRID:CVCL_14520 and OVCAR-5 (RRID:CVCL_1628) ovarian carcinomas, 786-O (RRID:CVCL_1051) and A498 (RRID:CVCL_A498) renal cell carcinoma, NCI-H211 (ATCC, cat. CRL-5824; RRID:CVCL_1529), NCI-H196 (ATCC, cat. CRL-5823, RRID:CVCL_1509), SW 1271 (ATCC, cat. CRL-2177, RRID:CVCL_1716) and NCI-H1876 (ATCC, cat. CRL-5902, RRID:CVCL_1503) small cell lung carcinomas, MDA-MB-231 (RRID:CVCL_0062) and MDA-MB-468 (RRID:CVCL_0419)breast carcinomas (10-12). Pooled donor human umbilical vein endothelial cells (HUVEC, Lonza, cat. CC-2519) and human mesenchymal stem cells (hMSC, Lonza, cat. PT-2501) were purchased from Lonza (Walkersville, MD).
Cell Culture. All cells were maintained in an incubator at 37 degrees C and 5% CO2 with 95% humidity. The PDC lines were cultured according to standard operating procedures established by the NCI PDMR (https://pdmr.cancer.gov). Briefly all PDCs were thawed and cultured in Matrigel-coated flasks prepared with a working solution of 1X Ham's F-12 nutrient mix, without supplementation (Invitrogen, Waltham, MA, cat. 11765054), 100 U/mL penicillin-streptomycin (Invitrogen, cat. 15140122), and 2.5% Matrigel (Corning Inc., Corning, NY, cat. 354248) for the first three passages. […]

[1] = second compound 0.1 µM, first compound 0.000949 µM
[2] = second compound 0.1 µM, first compound 0.003 µM
[3] = second compound 0.1 µM, first compound 0.00949 µM
[4] = second compound 0.1 µM, first compound 0.03 µM
[5] = second compound 0.1 µM, first compound 0.0949 µM
[6] = second compound 0.1 µM, first compound 0.3 µM
[7] = second compound 0.316 µM, first compound 0.000949 µM
[8] = second compound 0.316 µM, first compound 0.003 µM
[9] = second compound 0.316 µM, first compound 0.00949 µM
[10] = second compound 0.316 µM, first compound 0.03 µM
[11] = second compound 0.316 µM, first compound 0.0949 µM
[12] = second compound 0.316 µM, first compound 0.3 µM
[13] = second compound 1 µM, first compound 0.000949 µM
[14] = second compound 1 µM, first compound 0.003 µM
[15] = second compound 1 µM, first compound 0.00949 µM
[16] = second compound 1 µM, first compound 0.03 µM
[17] = second compound 1 µM, first compound 0.0949 µM
[18] = second compound 1 µM, first compound 0.3 µM
[19] = second compound 3.16 µM, first compound 0.000949 µM
[20] = second compound 3.16 µM, first compound 0.003 µM
[21] = second compound 3.16 µM, first compound 0.00949 µM
[22] = second compound 3.16 µM, first compound 0.03 µM
[23] = second compound 3.16 µM, first compound 0.0949 µM
[24] = second compound 3.16 µM, first compound 0.3 µM
[25] = second compound 10 µM, first compound 0.000949 µM
[26] = second compound 10 µM, first compound 0.003 µM
[27] = second compound 10 µM, first compound 0.00949 µM
[28] = second compound 10 µM, first compound 0.03 µM
[29] = second compound 10 µM, first compound 0.0949 µM
[30] = second compound 10 µM, first compound 0.3 µM
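Also: exposure lasted seven days after three days of spheroid growth.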
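For viability, T/C in this document: 100% = DMSO vehicle control luminescence.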

With `CCc1c2c(nc3ccc(O)cc13)-c1cc3c(c(=O)n1C2)COC(=O)[C@]3(O)CC` + NC1CC1c1ccc(-c2cccc(O)c2)cc1 the IC50 (second compound 0.1 µM) was < 0.949 nM, the IC50 (second compound 0.316 µM) was < 0.949 nM and the IC50 (second compound 1 µM) was < 0.949 nM. For the same molecule, the IC50 (second compound 3.16 µM) was < 0.949 nM, the IC50 (second compound 10 µM) was < 0.949 nM and the viability, T/C [1] was 25.1%. The viability, T/C [2] was 20.4%, the viability, T/C [3] was 17.5% and the viability, T/C [4] was 14%. It also gave a viability, T/C [5] of 0.36%, a viability, T/C [6] of 0.15% and a viability, T/C [7] of 25.6%. It also gave a viability, T/C [8] of 21.7%, a viability, T/C [9] of 19.9% and a viability, T/C [10] of 13%. It also gave a viability, T/C [11] of 0.27%, a viability, T/C [12] of 0.12% and a viability, T/C [13] of 25.8%. For the same molecule, the viability, T/C [14] was 21.6%, the viability, T/C [15] was 24.4% and the viability, T/C [16] was 14.2%. The viability, T/C [17] was 0.38%, the viability, T/C [18] was 0.88% and the viability, T/C [19] was 21.6%. It also gave a viability, T/C [20] of 18.4%, a viability, T/C [21] of 19.6% and a viability, T/C [22] of 14.4%. It also gave a viability, T/C [23] of 0.18%, a viability, T/C [24] of 0.15% and a viability, T/C [25] of 22.1%. It also gave a viability, T/C [26] of 19.7%, a viability, T/C [27] of 17.4% and a viability, T/C [28] of 13.8%. For the same molecule, the viability, T/C [29] was 0.25% and the viability, T/C [30] was 0.21%.
With `Nc1ccn(C2OC(CO)C(O)C2(F)F)c(=O)n1` (stereo not given) + NC1CC1c1ccc(-c2cccc(O)c2)cc1 the IC50 (second compound 0.1 µM) was < 0.949 nM, the IC50 (second compound 0.316 µM) was < 0.949 nM and the IC50 (second compound 1 µM) was < 0.949 nM. The IC50 (second compound 3.16 µM) was < 0.949 nM, the IC50 (second compound 10 µM) was < 0.949 nM and the viability, T/C [1] was 19.4%. The viability, T/C [2] was 23.2%, the viability, T/C [3] was 21.9% and the viability, T/C [4] was 22.2%. The viability, T/C [5] was 23.6%, the viability, T/C [6] was 24.9% and the viability, T/C [7] was 19.8%. The viability, T/C [8] was 20.6%, the viability, T/C [9] was 22.8% and the viability, T/C [10] was 21%. It also gave a viability, T/C [11] of 23.2%, a viability, T/C [12] of 23% and a viability, T/C [13] of 22%. It also gave a viability, T/C [14] of 20.8%, a viability, T/C [15] of 23.4% and a viability, T/C [16] of 21.5%. The viability, T/C [17] was 21.1%, the viability, T/C [18] was 24.4% and the viability, T/C [19] was 21.9%. For the same molecule, the viability, T/C [20] was 20.8%, the viability, T/C [21] was 20.6% and the viability, T/C [22] was 25.6%. It also gave a viability, T/C [23] of 21%, a viability, T/C [24] of 20.9% and a viability, T/C [25] of 29.5%. It also gave a viability, T/C [26] of 27.2%, a viability, T/C [27] of 24.9% and a viability, T/C [28] of 24.3%. It also gave a viability, T/C [29] of 23.3% and a viability, T/C [30] of 21.6%.
For `O=C(c1cc(Cc2n[nH]c(=O)c3ccccc23)ccc1F)N1CCN(C(=O)C2CC2)CC1` + NC1CC1c1ccc(-c2cccc(O)c2)cc1, the IC50 (second compound 0.1 µM) was 855 nM, the IC50 (second compound 0.316 µM) was 784 nM and the IC50 (second compound 1 µM) was 1070 nM. The IC50 (second compound 3.16 µM) was 526 nM, the IC50 (second compound 10 µM) was 160 nM and the viability, T/C (second compound 0.1 µM, first compound 0.0316 µM) was 94.1%. For the same molecule, the viability, T/C (second compound 0.1 µM, first compound 0.1 µM) was 86.6%, the viability, T/C (second compound 0.1 µM, first compound 0.316 µM) was 72.5% and the viability, T/C (second compound 0.1 µM, first compound 1 µM) was 45.8%. The viability, T/C (second compound 0.1 µM, first compound 3.16 µM) was 37.5%, the viability, T/C (second compound 0.1 µM, first compound 10 µM) was 36.4% and the viability, T/C (second compound 0.316 µM, first compound 0.0316 µM) was 96%. For the same molecule, the viability, T/C (second compound 0.316 µM, first compound 0.1 µM) was 87.7%, the viability, T/C (second compound 0.316 µM, first compound 0.316 µM) was 65.5% and the viability, T/C (second compound 0.316 µM, first compound 1 µM) was 46.5%. For the same molecule, the viability, T/C (second compound 0.316 µM, first compound 3.16 µM) was 34.9%, the viability, T/C (second compound 0.316 µM, first compound 10 µM) was 31.9% and the viability, T/C (second compound 1 µM, first compound 0.0316 µM) was 91.3%. The viability, T/C (second compound 1 µM, first compound 0.1 µM) was 71.8%, the viability, T/C (second compound 1 µM, first compound 0.316 µM) was 60.8% and the viability, T/C (second compound 1 µM, first compound 1 µM) was 59.5%. For the same molecule, the viability, T/C (second compound 1 µM, first compound 3.16 µM) was 33.5%, the viability, T/C (second compound 1 µM, first compound 10 µM) was 26.9% and the viability, T/C (second compound 3.16 µM, first compound 0.0316 µM) was 93.3%. The viability, T/C (second compound 3.16 µM, first compound 0.1 µM) was 84.1%, the viability, T/C (second compound 3.16 µM, first compound 0.316 µM) was 53.7% and the viability, T/C (second compound 3.16 µM, first compound 1 µM) was 42.1%. It also gave a viability, T/C (second compound 3.16 µM, first compound 3.16 µM) of 35.9%, a viability, T/C (second compound 3.16 µM, first compound 10 µM) of 25.5% and a viability, T/C (second compound 10 µM, first compound 0.0316 µM) of 58%. It also gave a viability, T/C (second compound 10 µM, first compound 0.1 µM) of 53.4%, a viability, T/C (second compound 10 µM, first compound 0.316 µM) of 47.1% and a viability, T/C (second compound 10 µM, first compound 1 µM) of 38%. For the same molecule, the viability, T/C (second compound 10 µM, first compound 3.16 µM) was 31.1% and the viability, T/C (second compound 10 µM, first compound 10 µM) was 26.5%.
